Key:
Format in all cases: cell-based, human
[1] = test system: H9 hESCs; assay: NKX6.1 induction in neurally differentiating H9 hESCs after 24 h treatment (flow cytometry, RT-PCR, day 3)
Description: (§1) NKX6.1 is the earliest expressed marker in the motor neuron development cascade in vivo, so we examined its expression in response to Wnt/β-catenin, RA, and SHH signaling during hPSC motor neuron differentiation. H9 hESCs were differentiated in E6 medium for 2 days to initiate neural fate acquisition34 and then treated with combinations of RA, purmorphamine (PM, a small molecule agonist of SHH signaling), and CHIR for 24 h (FIG. 4A). […] Using the H9 ishcat2 line, we observed that CHIR-mediated induction of NKX6.1 was β-catenin-dependent, as the optimal 3 days of shRNA-mediated CTNNB1 knockdown upstream of CHIR treatment was required to maximally reduce NKX6.1 induction to 44±1% (FIG. 4E). The correlation between NKX6.1 knockdown and days of doxycycline treatment was presumably due to the time delay for shRNA synthesis and subsequent gene knockdown in Tet-on systems. […] Exogenously added WNT3A (200 ng/mL) could also induce NKX6.1 expression (60±14%) (FIG. 4G), providing further evidence for the involvement of Wnt/β-catenin signaling in this process. In contrast, simultaneous treatment with CHIR and BMP4 (200 ng/mL), a dorsal patterning factor, reduced the expression of NKX6.1 from 91±1% to 68±2% (FIG. 4H).
(§2) hESCs were dissociated with accutase (Thermo Fisher Scientific) and reseeded at 1×10^5 cells/cm2 in E8 medium containing 10 μM ROCK inhibitor (Y27632; R&D Systems) on 6-well polystyrene tissue culture plates coated with 100 μg/mL poly-L-ornithine (PLO; Sigma) and 8 μg/well VTN-NC. The timelines and relevant growth factors/small molecules for all differentiation procedures are described in detail in the Results section and its accompanying figures. Cells were differentiated for various amounts of time in E6 medium containing the same insulin concentration as E8 medium as described above with varying combinations of soluble factors (product information and concentration ranges are found in Table 2). For neuromesodermal induction and HOX propagation, cells were sequentially cultured with FGF8b, CHIR99021 (CHIR), GDF11, and dorsomorphin (DM) as previously described. Briefly, to initiate the neuromesodermal state, cells were changed to E6 medium followed by addition of FGF8b (200 ng/ml) 24 h later. To generate cervical neuromesodermal progenitors, cells were washed with PBS, treated with accutase, and re-seeded in E6 medium containing 200 ng/ml FGF8b, 3 μM CHIR, and 10 μM Y27632 on VTN-NC-coated plates at a density of 1.5×10^5 cells/cm^2 for 48 h. To generate thoracic neuromesodermal progenitors, cells were passaged again after 72 h of CHIR treatment and re-seeded at different densities as described in the text.
Thoracic identity was reached after an additional 24 h. Then, to reach the lumbosacral level, cells were given 30 ng/ml GDF11 and 1 μM DM for an additional 48 h. For neuroectoderm induction and generation of OLIG2^+ progenitors, FGF8b was removed at the designated time points and the concentration of CHIR was increased for 6 h as described in the text, followed by a transition to media containing RA, PM, and SHH for a period of 48 h. For differentiation of the OLIG2^+ progenitors to motor neurons, cells were subcultured by en bloc passage using a cell scraper, reseeded at a 1:200 ratio in Matrigel-coated 8-well chamber slides, and differentiated for 14 days in E6 medium containing 1 μM RA, 100 nM PM, and 100 ng/mL SHH, with media exchange every 3 days (10 μM Y27632 was included during the en bloc passaging step and removed after the first media exchange). For differentiation of lumbar cultures, 1 μM DM was included in all steps. For the myoblast co-culture experiments, OLIG2^+ cultures were en bloc passaged, frozen in E6 medium containing 10% DMSO, shipped to a different location, and thawed 1:10 in 6-well plates under the same conditions as described in FIG. 5. To facilitate neuronal maturation prior to myoblast co-culture, 5 μM DAPT (Tocris) was added from days 8-14 post-thaw. […]

[2] = test system: H9 ishcat2 hESC line; assay: Doxycycline-inducible shRNA knockdown of β-catenin (CTNNB1) during motor neuron differentiation; settings: doxycycline 2 μg/mL
Description: In the ventral neural tube, SHH signaling generates OLIG2^+ motor neuron progenitors that subsequently mature into post-mitotic ISL1^+ and/or HB9^+ motor neurons. To probe the role of Wnt/β-catenin signaling during this process in vitro, we utilized the H9 ishcat2 hESC line, which harbors a doxycycline-inducible shRNA against CTNNB1.
Similarly, we induced β-catenin knockdown while differentiating the hESCs into motor neurons via E6 neural induction with RA (1 μM), purmorphamine (PM, a small molecule agonist of sonic hedgehog signaling; 100 nM), and neurotrophic factor treatment, as previously described (FIG. 3A).
as §1
hESCs were maintained on Matrigel (BD Biosciences) in E8 medium but with 10-fold lower insulin concentration (2 mg/L). Cell lines used in this study were H9 hESCs (passage 25-45) and H9 ishcat2 hESCs (passage 35-45). […]

[3] = test system: H9 hESCs; assay: Induction of NKX6.1+/PAX6+/OLIG2+ motor neuron progenitors from cervical neuromesoderm (flow cytometry, immunocytochemistry); settings: RA 1 μM for 2 days without PM or SHH, day 6
Description: To begin, we sequentially differentiated H9 hESCs in E6 media for 1 day, and FGF8b (200 ng/mL) for 1 day, and FGF8b and CHIR (3 μM) for 2 days to generate cervical neuromesoderm (FIGS. 5A-5B). Then, we screened the effects of CHIR, PM, and SHH treatment on NKX6.1^+/PAX6^+/OLIG2^+ motor neuron progenitor induction while transitioning to media containing 1 μM RA (FIGS. 5A-5D). Prior to the addition of RA, NKX6.1 was expressed in the cervical neuromesodermal state at day 4 (80±18% NKX6.1^+; data not shown), likely due to the CHIR-induced Wnt/β-catenin signaling (FIGS. 4A-4H). Transitioning the neuromesodermal progenitors to RA-containing media for 2 days induced HOXB4^+/HOXC6^+/HOXC9^−/HOXD10^−/PAX6^+ cervical neuroectoderm in all conditions (FIGS. 5B-5C), as expected. However, without co-activation of SHH signaling by PM or SHH, NKX6.1 expression was quickly lost by day 6 (97±1% PAX6^+, 17±3% NKX6.1^+) (FIG. 5C). […] To bolster this claim, we also analyzed the abundance of full-length GLI3 versus its truncated repressor form by western blot. […] Thus, Wnt/β-catenin signaling is necessary to induce ventral identity, but its continuous activation during OLIG2 induction by SHH signaling is detrimental to motor neuron differentiation, possibly due to activation of the GLI3 repressor.
Next, we tested conditions where CHIR was removed after transitioning to media containing RA (1 μM), PM (2 μM), and SHH (2 μg/mL) (FIGS. 5A-5C).
Since NKX6.1 is a pre-requisite to OLIG2 expression, we hypothesized that the Wnt/β-catenin signaling-dependent NKX6.1 expression levels may still be too low for efficient OLIG2^+ motor neuron progenitor induction. Therefore, the concentration of CHIR was boosted to 6 or 9 μM for 6 h immediately prior to transitioning to E6 medium containing RA, PM, and SHH without CHIR (FIG. 5A). The 9 μM CHIR boost followed by a transition to media containing 1 μM RA, 2 μM PM, and 2 μg/mL SHH yielded optimal motor neuron progenitor cultures with highly uniform NKX6.1, OLIG2, and PAX6 expression (96±1%, 85±9%, and 97±2%, respectively) (FIGS. 5C-5D).
as §2
(§3) Thoracic identity was reached after an additional 24 h. Then, to reach the lumbosacral level, cells were given 30 ng/ml GDF11 and 1 μM DM for an additional 48 h. For neuroectoderm induction and generation of OLIG2^+ progenitors, FGF8b was removed at the designated time points and the concentration of CHIR was increased for 6 h as described in the text, followed by a transition to media containing RA, PM, and SHH for a period of 48 h. […]

[4] = test system: H9 hESCs; assay: Differentiation of cervical OLIG2+ progenitors to post-mitotic motor neurons (immunocytochemistry, flow cytometry); settings: 20 total days of differentiation, SHH, or SAG 2 μM instead of SHH
From the text: Having optimized the efficiency of OLIG2 induction at diverse spinal cord regions, next region-specific post-mitotic motor neurons were generated. Cervical OLIG2^+ motor neuron progenitors were en bloc passaged and gradually differentiated to ISL1^+ motor neurons over a 14-day period (FIGS. 7A-7B). […] The extensive co-labeling of ISL1^+ cells with SMI32-reactive non-phosphorylated neurofilament heavy chain is indicative of motor neuron identity. Widespread HB9/βIII-tubulin motor neuron expression was also observed throughout the cultures (FIG. 7C). Since spinal motor neurons in vivo are observed to be both ISL1^+, ISL1^+/HB9^+, and HB9^+ but are all SMI32 reactive, flow cytometry of the SMI32^+ cells is proposed to best represent the total percentage of motor neurons in each culture. Moreover, the use of SAG (2 μM), a small molecule Smoothened agonist45, instead of SHH yielded similar efficiencies (72±4% SMI32^+, 63±13% ISL1^+, and 65±15% HB9^+) (FIG. 7C). High efficiencies were also observed for thoracic cultures, whereas lumbar cultures saw a ˜10% decrease in efficiency (FIG. 7C). For all regions, ISL1^+ motor neurons predominantly co-labeled with FOXP1 (70-80% in cervical motor neurons and 40-60% in thoracic and lumbar motor neurons) versus LHX3 markers (20-30% in cervical and thoracic cultures and 15-20% in lumbar cultures) (FIG. 7C). […] These trends agree with the observed distribution of columnar motor neuron phenotype in the cervical, thoracic and lumbar spinal cord in vivo, and it is consistent with our prior observations of motor neuron populations derived using the deterministic HOX patterning protocol.
as §3

## CC1=C2C[C@H]3[C@@H](CC=C4C[C@@H](O)CC[C@@]43C)[C@@H]2CC[C@]12O[C@@H]1C[C@H](C)CN[C@H]1[C@H]2C [Cyclopamine]
[1]; CHIR 6 μM plus Cyclopamine 5 μM, 24 h
  NKX6.1 expression (flow cytometry): did not diminish NKX6.1 expression

## C[C@H]1c2cccc(O)c2C(=O)C2=C(O)[C@]3(O)C(=O)C(C(N)=O)=C(O)[C@@H](N(C)C)[C@@H]3[C@@H](O)[C@@H]21 [Doxycycline]
[2]; day 3
  reduction of CTNNB1 expression (qPCR relative to RPS18): 87%
[2]; β-catenin knockdown, day 16
  NKX6.1 expression (flow cytometry): 2±1%

## c1ccc2c(Oc3nc(Nc4ccc(N5CCOCC5)cc4)c4ncn(C5CCCCC5)c4n3)cccc2c1 [PM, Purmorphamine]
[1]; combined RA 1 μM and PM 1 μM, no CHIR
  NKX6.1 induction within 24 h: did not induce NKX6.1

## CC1=C(/C=C/C(C)=C/C=C/C(C)=C/C(=O)O)C(C)(C)CCC1 [RA, Retinoic acid]
[3]
  NKX6.1+ cells: 17±3%
  PAX6+ cells: 97±1%

## CNC1CCC(N(Cc2cccc(-c3ccncc3)c2)C(=O)c2sc3ccccc3c2Cl)CC1 (centres unmarked) [SAG]
[4]
  HB9+ cells: 65±15%
  ISL1+ cells: 63±13%
  SMI32+ cells: 72±4%

B1: BMP4: a dorsal patterning factor (protein, UniProt P12644 293-408, looked up)
Bone morphogenetic protein 4: SPKHHSQRARKKNKNCRRHSLYVDFSDVGWNDWIVAPPGYQAFYCHGDCPFPLADHLNSTNHAIVQTLVNSVNSSIPKACCVPTELSAISMLYLDEYDKVVLKNYQEMVVEGCGCR
[1]; simultaneous CHIR 4 μM and BMP4 200 ng/mL, day 3
  NKX6.1 expression (flow cytometry): 68±2%

B2: WNT3A: soluble WNT3A, Wnt polypeptide ligand activating Wnt/β-catenin signaling (protein, UniProt P56704 19-352, looked up)
Protein Wnt-3a: SYPIWWSLAVGPQYSSLGSQPILCASIPGLVPKQLRFCRNYVEIMPSVAEGIKIGIQECQHQFRGRRWNCTTVHDSLAIFGPVLDKATRESAFVHAIASAGVAFAVTRSCAEGTAAICGCSSRHQGSPGKGWKWGGCSEDIEFGGMVSREFADARENRPDARSAMNRHNNEAGRQAIASHMHLKCKCHGLSGSCEVKTCWWSQPDFRAIGDFLKDKYDSASEMVVEKHRESRGWVETLRPRYTYFKVPTERDLVYYEASPNFCEPNPETGSFGTRDRTCNVSSHGIDGCDLLCCGRGHNARAERRREKCRCVFHWCCYVSCQECTRVYDVHTCK
[1]; WNT3A 200 ng/mL, day 3
  NKX6.1 expression (flow cytometry): 60±14%

— patent US12084680B2, “Methods for efficient derivation of human motor neurons from diverse spinal regions” (Wisconsin Alumni Research Foundation, priority 2016, dated 2024)
